pEC50: −log10 of the molar value. Where two headings read alike, the source gives them in different places.
Columns and labels:
[1] = tested on: ovarian cancer (4 cell lines); assay: CellTiter-Glo Viability Assay, ovarian cancer; format: cell-based; conditions: Homo sapiens, inhibition of cancer cell proliferation
MDA-MB-231-Luc = assay: CellTiter-Glo Viability Assay, breast cancer; format: cell-based; conditions: Homo sapiens, 96 h; MDA-MB-231-Luc, breast cancer, four days; read-out: EC50
MCF7 = assay: CellTiter-Glo Viability Assay, breast cancer; format: cell-based; conditions: Homo sapiens, 96 h; MCF7, breast cancer, four days; read-out: EC50
CAMA1 = assay: CellTiter-Glo Viability Assay, breast cancer; format: cell-based; conditions: Homo sapiens, CAMA-1, 96 h; CAMA1, breast cancer, four days; read-out: EC50
DU4475 = assay: CellTiter-Glo Viability Assay, breast cancer; format: cell-based; conditions: Homo sapiens, DU-4475, 96 h; DU4475, breast cancer, four days; read-out: EC50
BT-549 = assay: CellTiter-Glo Viability Assay, breast cancer; format: cell-based; conditions: Homo sapiens, 96 h; BT-549, breast cancer, four days; read-out: EC50
ZR-75-1 = assay: CellTiter-Glo Viability Assay, breast cancer; format: cell-based; conditions: Homo sapiens, 96 h; ZR-75-1, breast cancer, four days; read-out: EC50
T47D = assay: CellTiter-Glo Viability Assay, breast cancer; format: cell-based; conditions: Homo sapiens, 96 h, breast cancer, four days, read-out: EC50
HCC1599 = assay: CellTiter-Glo Viability Assay, breast cancer; format: cell-based; conditions: Homo sapiens, 96 h; HCC1599, breast cancer, four days; read-out: EC50
[2] = tested on: lung cancer (4 cell lines); assay: CellTiter-Glo Viability Assay, lung cancer; format: cell-based; conditions: Homo sapiens, inhibition of cancer cell proliferation
[3] = tested on: colorectal cancer (6 cell lines); assay: CellTiter-Glo Viability Assay, colorectal cancer; format: cell-based; conditions: Homo sapiens, inhibition of cancer cell proliferation
[4] = tested on: pancreatic cancer (8 cell lines); assay: CellTiter-Glo Viability Assay, pancreatic cancer; format: cell-based; conditions: Homo sapiens, inhibition of cancer cell proliferation
[5] = tested on: prostate cancer (5 cell lines); assay: CellTiter-Glo Viability Assay, prostate cancer; format: cell-based; conditions: Homo sapiens
CLK2 = target: T1, CLK2 (Homo sapiens, UniProt P49760); assay: CLK2 kinase activity assay (Z-lyte, Ser/Thr 6 peptide); format: biochemical; conditions: recombinant CLK2 kinase, ATP 60 μM; read-out: EC50
T1 construct: purchased Thermo Fisher (Life Technologies), Z'-LYTE Kinase Assay Kits
Protocol: All reactions were performed in duplicate.

all 50 cell lines = assay: CellTiter-Glo Viability Assay, average across all cell lines; format: cell-based; conditions: Homo sapiens; across all 50 cell lines; read-out: average EC50 for inhibition of cancer cell proliferation
How it was run: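 Cells were plated at 300-3,000 per well in their own media, then treated with compound in duplicate, with DMSO wells as controls. After four days at 37° C and 5% CO2, CellTiter-Glo was added, and luminescence was read. EC50s were fitted.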

[6] = tested on: liver cancer (3 cell lines); assay: CellTiter-Glo Viability Assay, liver cancer; format: cell-based; conditions: Homo sapiens, inhibition of cancer cell proliferation
[7] = tested on: haematopoietic & lymphoid tumors (13 cell lines); assay: CellTiter-Glo Viability Assay, haematopoietic & lymphoid tumors; format: cell-based; conditions: Homo sapiens, inhibition of cancer cell proliferation

T1 sequence (P49760 whole entry): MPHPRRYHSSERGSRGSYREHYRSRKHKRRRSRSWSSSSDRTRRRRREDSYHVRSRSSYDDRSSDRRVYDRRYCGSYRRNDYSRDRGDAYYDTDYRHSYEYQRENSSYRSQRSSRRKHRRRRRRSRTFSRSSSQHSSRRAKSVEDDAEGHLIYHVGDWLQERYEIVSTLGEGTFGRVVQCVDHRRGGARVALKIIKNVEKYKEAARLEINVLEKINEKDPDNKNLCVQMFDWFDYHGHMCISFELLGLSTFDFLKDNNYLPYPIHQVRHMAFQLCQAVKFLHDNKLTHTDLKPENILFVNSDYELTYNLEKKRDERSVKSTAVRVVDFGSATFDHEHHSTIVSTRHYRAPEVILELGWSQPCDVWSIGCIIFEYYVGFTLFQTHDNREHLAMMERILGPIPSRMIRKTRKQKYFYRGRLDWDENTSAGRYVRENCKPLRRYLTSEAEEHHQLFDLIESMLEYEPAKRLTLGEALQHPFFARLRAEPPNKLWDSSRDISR

EC50 ([1]; PA-1, PA1 cell line, read-out: Ovarian cancer, EC50 (μM) PA1): 0.195 µM
EC50 ([1]; TOV112D, TOV-112D cell line, read-out: Ovarian cancer, EC50 (μM) TOV-112D): 0.233 µM
EC50 ([1]; OV-90 cell line, read-out: Ovarian cancer, EC50 (μM) OV-90): 0.901 µM
EC50 ([1]; OVCAR-3 cell line, read-out: Ovarian cancer, EC50 (μM) OVCAR-3): 0.406 µM
pEC50 (MDA-MB-231-Luc): 6.51
pEC50 (MCF7): 5.48
pEC50 (CAMA1): 5.91
pEC50 (DU4475): 6.43
pEC50 (BT-549): 6.14
pEC50 (ZR-75-1): 6.39
pEC50 (T47D): 5.89
pEC50 (HCC1599): 6.19
EC50 ([2]; A-427, A427 cell line, read-out: Lung cancer, EC50 (μM) A427): 0.756 µM
EC50 ([2]; HCC78, HCC-78 cell line, read-out: Lung cancer, EC50 (μM) HCC-78): 0.666 µM
EC50 ([2]; NCI-H460 cell line, read-out: Lung cancer, EC50 (μM) NCI-H460): 0.922 µM
EC50 ([2]; NCI-H522 cell line, read-out: Lung cancer, EC50 (μM) NCI-H522): 0.43 µM
EC50 ([3]; HCT-116, HCT116 cell line, read-out: Colorectal cancer, EC50 (μM) HCT116): 0.156 µM
EC50 ([3]; HT-29, HT29 cell line, read-out: Colorectal cancer, EC50 (μM) HT29): 0.318 µM
EC50 ([3]; SW-620, SW620 cell line, read-out: Colorectal cancer, EC50 (μM) SW620): 0.125 µM
EC50 ([3]; DLD-1 cell line, read-out: Colorectal cancer, EC50 (μM) DLD-1): 0.265 µM
EC50 ([3]; SW48 cell line, read-out: Colorectal cancer, EC50 (μM) SW48): 0.131 µM
EC50 ([3]; SW480 cell line, read-out: Colorectal cancer, EC50 (μM) SW480): 0.19 µM
pEC50 ([4]; BXPC-3, BxPC3 cell line, read-out: Pancreatic cancer, EC50 BxPC3): 6.04
pEC50 ([4]; CAPAN-1, Capan1 cell line, read-out: Pancreatic cancer, EC50 Capan1): 5.99
pEC50 ([4]; Capan-2, Capan2 cell line, read-out: Pancreatic cancer, EC50 Capan2): 5.85
pEC50 ([4]; MIA PaCa-2 cell line, read-out: Pancreatic cancer, EC50 MIA PaCa-2): 6.36
pEC50 ([4]; PANC 05.04 cell line, read-out: Pancreatic cancer, EC50 PANC 05.04): 6.18
pEC50 ([4]; PANC-1 cell line, read-out: Pancreatic cancer, EC50 PANC-1): 5.94
pEC50 ([4]; UPAFII cell line, read-out: Pancreatic cancer, EC50 UPAFII): 6.55
pEC50 ([5]; DU-145, read-out: Prostate cancer EC50 Du-145): 6.13
pEC50 ([5]; PC-3, PC3 cell line, inhibition of cancer cell proliferation, read-out: Prostate cancer EC50 PC3): 6.06
pEC50 ([5]; 22Rv1 cell line, inhibition of cancer cell proliferation, read-out: Prostate cancer EC50 22Rv1): 6.50
pEC50 ([5]; LNCap clone FGC cell line, inhibition of cancer cell proliferation, read-out: Prostate cancer EC50 LNCap clone FGC): 6.37
pEC50 ([5]; VCaP (Sigma) cell line, inhibition of cancer cell proliferation, read-out: Prostate cancer EC50 VCaP (Sigma)): 5.47
pEC50 (CLK2): 8.72
pEC50 ([6]; SNU-398, SNU398 cell line, read-out: Liver cancer, EC50 SNU398): 6.78
pEC50 ([6]; HEPG2 cell line, read-out: Liver cancer, EC50 HEPG2): 6.43
pEC50 ([6]; PLC/PRF/5 cell line, read-out: Liver cancer, EC50 PLC/PRF/5): 6.06
EC50 ([7]; DND41, DND-41 cell line, read-out: Haematopoietic & Lymphoid tumors, EC50 (μM) DND-41): 0.225 µM
EC50 ([7]; MV4-11, MV-4-11 cell line, read-out: Haematopoietic & Lymphoid tumors, EC50 (μM) MV-4-11): 0.101 µM
EC50 ([7]; Rec1, REC-1 cell line, read-out: Haematopoietic & Lymphoid tumors, EC50 (μM) REC-1): 0.11 µM
EC50 ([7]; SU-DHL-4, SUDHL4 cell line, read-out: Haematopoietic & Lymphoid tumors, EC50 (μM) SUDHL4): 0.498 µM
EC50 ([7]; HL-60 cell line, read-out: Haematopoietic & Lymphoid tumors, EC50 (μM) HL-60): 0.522 µM
EC50 ([7]; JM1 cell line, read-out: Haematopoietic & Lymphoid tumors, EC50 (μM) JM1): 0.122 µM
EC50 ([7]; JURKAT, Clone E6-1 cell line, read-out: Haematopoietic & Lymphoid tumors, EC50 (μM) JURKAT, Clone E6-1): 0.5 µM
EC50 ([7]; JeKo-1 cell line, read-out: Haematopoietic & Lymphoid tumors, EC50 (μM) JeKo-1): 0.458 µM
EC50 ([7]; KASUMI-1 cell line, read-out: Haematopoietic & Lymphoid tumors, EC50 (μM) KASUMI-1): 1 µM
EC50 ([7]; Loucy cell line, read-out: Haematopoietic & Lymphoid tumors, EC50 (μM) Loucy): 0.385 µM
EC50 ([7]; MOLT-4 cell line, read-out: Haematopoietic & Lymphoid tumors, EC50 (μM) MOLT-4): 0.343 µM
EC50 ([7]; TF-1 cell line, read-out: Haematopoietic & Lymphoid tumors, EC50 (μM) TF-1): 0.35 µM
EC50 ([7]; TOLEDO cell line, read-out: Haematopoietic & Lymphoid tumors, EC50 (μM) TOLEDO): 0.132 µM
Structure (SMILES): CN1CCN(c2cc(C(=O)Nc3cc4cc(-c5cnn(C)c5)c(F)cc4cn3)ccn2)CC1 [Compound 69]
pEC50 (all 50 cell lines): 6.20
